According to patent US20210000806A1, “COMPOSITIONS AND METHODS FOR TREATING INFLAMMATORY BOWEL DISEASE AND FUSOBACTERIA-CAUSED OR RELATED DISEASES AND CONDITIONS” (priority 2018, published 2021):

Assays:
ulcerative colitis = assay: Case report: patient with ulcerative colitis (pancolitis) treated with secnidazole, rifampicin and doxycycline; assay type: in vivo, human; settings: patient history before the antibiotic combination
Protocol: A patient with a 12 year history of ulcerative colitis presented with 4-15 diarrhoeal stools every day and 2-3 at night.
They were commenced on secnidazole (400 mg three times daily) combined with rifampicin (increasing from 150 mg twice daily to 300 mg twice daily after four weeks), together with doxycycline (50 mg twice daily).
They then continued on the same regimen a further six months when a colonoscopy was repeated.

[1] = tested on: inflammatory bowel disease (IBD); assay: Inventor's clinical experience with higher-dose rifaximin in colitis / IBD; assay type: in vivo, human
Excerpt: Current doses are almost always an under-dosing with rifaximin; and there is no external dose reference or independent dose ranging study in colitis to be guided by.

Compound | response to previous anti-inflammatory medications (ulcerative colitis) | inhibiting inflammation by inhibiting the infection(s) ([1]; higher dose spread over 3 doses/day (3.3 g per day) versus current recommended doses (550 mg twice daily)) | remission with rifaximin alone ([1]; only using the higher and more frequent dosing)
Nc1ccc(O)c(C(=O)O)c1 [mesalazine] | not achieving more than a transient response | – | –
Cn1cnc([N+](=O)[O-])c1Sc1ncnc2nc[nH]c12 [azathioprine] | not achieving more than a transient response | – | –
CO[C@H]1/C=C/O[C@@]2(C)Oc3c(C)c(O)c4c(O)c(c5c(nc6cc(C)ccn65)c4c3C2=O)NC(=O)/C(C)=C\C=C\[C@H](C)[C@H](O)[C@@H](C)[C@@H](O)[C@@H](C)[C@H](OC(C)=O)[C@@H]1C [rifaximin] | – | works far better | can be used to achieve remission
C[C@]12C=CC(=O)C=C1CC[C@@H]1[C@@H]2C(=O)C[C@@]2(C)[C@H]1CC[C@]2(O)C(=O)CO [prednisone] | not achieving more than a transient response | – | –
